Tests used:
5637 = test: MTT cell survival / IC50, 5637 cells; format: cell-based, human
J-82 = test: MTT cell survival / IC50, J-82 cells; format: cell-based, human; conditions: J82; Table S3; ng/ml: Pi 40, Pa 160, EH 250, Ci 1500, Mi 200; 1=Ci/Mi, 2=EH/Ci/Mi, 3=Pa/Ci/Mi, 4=Pi/Ci/Mi
SV-HUC-1 = format: cell-based
ER Stress pathway = test: Cignal Finder dual-luciferase pathway reporter, ER Stress; format: cell-based, human; conditions: for Relative activity, ER Stress reporter: luc/Renluc relative to negative control reporter, single drug at 4 folds vs EH/Ci/Mi combination
Description: (§1) The pathway analysis was performed with Qiagen's Cignal Finder Pathway Reporter Array systems according to the manufacturer's instructions. The pathway-focused dual-luciferase reporter construct was a mixture of an inducible transcription factor responsive firefly luciferase reporter and constitutively expressing renilla construct. Transcriptional response element (TRE) sequence response elements to each specific transcriptional factor triggered by the different signaling pathways are positioned before the TATA box of firefly luciferase reporter gene. The extent of activity of the reporter reflects the level of activity of the particular signaling pathway. CMV controlled renilla expression vector is co-transfected into the cell as an internal control. Non-inducible reporter construct that lacks the transcriptional factor binding sequence and could not be induced by any transcription factors is used as a negative control. Cells transfected with CMV directed firefly luciferase reporter gene serve as a positive control. Briefly, cells seeded in 6-well plates were transfected with Cignal finder pathway arrays according to the manufacturer's instructions (Qiagen). Then cells were seeded onto 96-well plates. Ci (6000 ng/mL), Mi (800 ng/mL), or EH (1000 ng/mL) and Ci/Mi/EH combination (Ci, 1500 ng/mL, Mi, 800 ng/mL and EH, 1000 ng/m L) were then added to the cells 24 h post-transfection. After 6 h of incubation with the different drugs at 37° C., cells were lysed and a dual luciferase assay (for firefly and renilla luciferase) was performed using a PromegaGloMax 20/20 illuminometer. The firefly luciferase activities were normalized over the renilla luciferase activities after background activity determined by luciferase activities of negative controls was subtracted. A triple test of cell survival under these drug doses was also performed by MTT assay following 18 h incubation at 37° C. […]

Wnt pathway = test: Cignal Finder dual-luciferase pathway reporter, Wnt; format: cell-based, human; parameters: key to Relative activity, Wnt reporter: firefly/renilla ratio, background (negative control) subtracted; conditions: for Relative activity, Wnt reporter: luc/Renluc relative to negative control reporter, single drug at 4 folds vs EH/Ci/Mi combination;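 for digitalized pathway activity, Wnt: code −1 means repressed below 0.5-fold of 5637 cells or no-drug control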
Description: as §1

[1] = tested on: Cell Cycle/pRb-E2F pathway; test: Cignal Finder dual-luciferase pathway reporter, Cell Cycle/pRb-E2F; format: cell-based, human; conditions: for Relative activity, Cell Cycle/pRb-E2F reporter: luc/Renluc relative to negative control reporter, single drug at 4 folds vs EH/Ci/Mi combination
Description: as §1

[2] = tested on: nine cancer-associated signaling pathways; test: Pearson correlation of collective drug-triggered pathway activities (single drug versus EH/Ci/Mi regimen)
Description: To calculate the correlation coefficients between the two cell lines, the R language statistics function “cor{stats}” was used to generate the correlation matrix between multiple cell lines.
This example then determined the correlation coefficient between the overall activity of these nine pathways and the chemoresistance state of these five cell lines. […] The overall state of activity of these pathways in each cell line are summarized (FIG. 4E) and the correlation coefficient of each pair of cell lines is calculated (FIG. 4F).

COC12C(COC(N)=O)C3=C(C(=O)C(C)=C(N)C3=O)N1CC1NC12 (stereo not shown) [Mi, [6-Amino-8a-methoxy-5-methyl-4,7-dioxo-1,1a,2,4,7,8,8a,8b-octahydroazireno [2′,3′:3,4]pyrrolo[1,2-a]indol-8-yl]methyl carbamate]
Cell survival (%) (5637; 5637, Table S3, ng/ml: Pi 40, Pa 160, EH 250, Ci 1500, Mi 200, 1=Ci/Mi, 2=EH/Ci/Mi, 3=Pa/Ci/Mi, 4=Pi/Ci/Mi): 53.16% | Single drug 4X Cell Survival (%) (5637; 5637, ng/ml: EH 1000, Ci 6000, Mi 800, Pi 160, Pa 640, Ge 20, EH/Ci/Mi regimen): 35.46% | Cell survival 72 hours (5637; 5637 cells, Table 4 (A)): 35.46% | ACS (%) (5637; 5637 cells, Table 4 (B)): 35.46% | Cell survival (%) (J-82): 48.38% | Single drug 4X Cell Survival (%) (SV-HUC-1; SV-HUC-1, ng/ml: EH 1000, Ci 6000, Mi 800, Pi 160, Pa 640, Ge 20, EH/Ci/Mi regimen): 91.17% | Cell survival 72 hours (SV-HUC-1; SV-HUC-1 cells, Table 4 (A)): 91.17% | ACS (%) (SV-HUC-1; SV-HUC-1 cells, Table 4 (B)): 91.17% | relative drug trigged pathway activity over the no-drug level, ER Stress (ER Stress pathway; 5637 cells): 3.2 fold | Relative activity, ER Stress reporter (ER Stress pathway; 5637 cells): 83.09 | relative drug trigged pathway activity over the no-drug level, ER Stress (ER Stress pathway; Biu87 cells): 1.65 fold | Relative activity, ER Stress reporter (ER Stress pathway; Biu87 cells): 36.14 | relative drug trigged pathway activity over the no-drug level, ER Stress (ER Stress pathway; H-bc cells): 1.97 fold | Relative activity, ER Stress reporter (ER Stress pathway; H-bc cells): 44.48 | relative drug trigged pathway activity over the no-drug level, ER Stress (ER Stress pathway; SV-HUC-1 cells): 1.51 fold | Relative activity, ER Stress reporter (ER Stress pathway; SV-HUC-1 cells): 155.20 | Relative activity, ER Stress reporter (ER Stress pathway; UM-UC-3 cells): 109.59 | relative drug trigged pathway activity over the no-drug level, ER Stress (ER Stress pathway; Um-Uc-3 cells): 1.34 fold | relative drug trigged pathway activity over the no-drug level, Wnt (Wnt pathway; 5637 cells): 1.87 fold | Relative activity, Wnt reporter (Wnt pathway; 5637 cells): 1.63 | digitalized pathway activity, Wnt (Wnt pathway; Biu87 cells): 0 (null (0) if neither of the above holds) | relative drug trigged pathway activity over the no-drug level, Wnt (Wnt pathway; Biu87 cells): 1.06 fold | Relative activity, Wnt reporter (Wnt pathway; Biu87 cells): 1.77 | digitalized pathway activity, Wnt (Wnt pathway; H-bc cells): 0 (null (0) if neither of the above holds) | relative drug trigged pathway activity over the no-drug level, Wnt (Wnt pathway; H-bc cells): 0.55 fold | Relative activity, Wnt reporter (Wnt pathway; H-bc cells): 0.60 | digitalized pathway activity, Wnt (Wnt pathway; SV-HUC-1 cells): 0 (null (0) if neither of the above holds) | relative drug trigged pathway activity over the no-drug level, Wnt (Wnt pathway; SV-HUC-1 cells): 1.29 fold | Relative activity, Wnt reporter (Wnt pathway; SV-HUC-1 cells): 1.60 | digitalized pathway activity, Wnt (Wnt pathway; UM-UC-3 cells): 0 (null (0) if neither of the above holds) | Relative activity, Wnt reporter (Wnt pathway; UM-UC-3 cells): 4.06 | relative drug trigged pathway activity over the no-drug level, Wnt (Wnt pathway; Um-Uc-3 cells): 1.13 fold | relative drug trigged pathway activity over the no-drug level, Cell Cycle/pRb-E2F ([1]; 5637 cells): 2.64 fold | Relative activity, Cell Cycle/pRb-E2F reporter ([1]; 5637 cells): 2.40 | digitalized pathway activity, Cell Cycle/pRb-E2F ([1]; Biu87 cells): 0 (null (0) if neither of the above holds) | relative drug trigged pathway activity over the no-drug level, Cell Cycle/pRb-E2F ([1]; Biu87 cells): 1.46 fold | Relative activity, Cell Cycle/pRb-E2F reporter ([1]; Biu87 cells): 0.83 | relative drug trigged pathway activity over the no-drug level, Cell Cycle/pRb-E2F ([1]; H-bc cells): 0.3 fold | Relative activity, Cell Cycle/pRb-E2F reporter ([1]; H-bc cells): 0.92 | digitalized pathway activity, Cell Cycle/pRb-E2F ([1]; SV-HUC-1 cells): 0 (null (0) if neither of the above holds) | relative drug trigged pathway activity over the no-drug level, Cell Cycle/pRb-E2F ([1]; SV-HUC-1 cells): 1.39 fold | Relative activity, Cell Cycle/pRb-E2F reporter ([1]; SV-HUC-1 cells): 6.80 | Relative activity, Cell Cycle/pRb-E2F reporter ([1]; UM-UC-3 cells): 2.17 | relative drug trigged pathway activity over the no-drug level, Cell Cycle/pRb-E2F ([1]; Um-Uc-3 cells): 0.37 fold | Correlation coefficients versus EH/Ci/Mi ([2]; 5637 cells): 1 | Correlation coefficients versus EH/Ci/Mi ([2]; Biu87 cells): 0.982 | Correlation coefficients versus EH/Ci/Mi ([2]; H-bc cells): −0.2773 | Correlation coefficients versus EH/Ci/Mi ([2]; SV-HUC-1 cells): 1 | Correlation coefficients versus EH/Ci/Mi ([2]; UmUc3 cells): 0.982
